Measurements reported in US9789095B2, “Inhibitors of calcium-activated chloride channels” (The Regents of the University of California, priority 2007, dated 2017).

Columns and labels:
[1] = tested on: calcium-activated chloride channel (CaCC); experiment: YFP fluorescence plate reader iodide influx assay in HT-29 cells (ATP/carbachol); assay type: cell-based, human; conditions: semi-quantitative
Protocol: Screening was performed using a customized screening system (BECKMAN COULTER, Inc., Indianapolis, Ind.) consisting of the SAGIAN Core system integrated with SAMI software, and equipped with an ORCA arm for labware transport, a 96-channel head BIOMEK FX, CO2 incubator, plate washer, bar code reader, delidding station, and two FLUOstar OPTIMA fluorescence plate readers (BMG Labtechnologies, Durham, N.C.), each equipped with syringe pumps and custom excitation/emission filters (500/544 nm; CHROMA, Brattleboro, Vt.).
HT-29 cells expressing YFP-H148Q/I152L were plated in 96-well plates at 70% confluence. Plates were incubated overnight at 37° C., 5% CO2 and then the growth medium was replaced with fresh growth medium. […] YFP fluorescence was measured 1 s before and for 30 s after addition of a PBS-iodide solution (PBS that has 100 mM chloride replaced by iodide) containing carbachol and ATP (100 μM each). Each 96-well plate contained ‘positive’ controls (DMSO vehicle without agonists or test compounds) and ‘negative’ controls (DMSO vehicle with agonists but without test compounds). In some experiments solutions included (individually or in combination): carbachol, ATP, or histamine (at 50, 100, 150 or 200 μM), calcimycin (10 μM), thapsigargin (2 μM) and CFTRinh-172 (20 μM).
Iodide influx (d[I^−]/dt at t=0) was computed from fluorescence time course data by single exponential regression, as described (Ma et al., J. Clin. Invest. 110:1651-8 (2002)). Percentage inhibition was computed as: percentage inhibition=100×(Slopenegative control−Slopetest compound)/(Slopenegative control−Slopepositive control).

[2] = Aqueous solubility in PBS by optical absorbance of a saturated solution; assay type: physicochemical; conditions: aqueous buffer, thermodynamic from solid
Description: The high aqueous solubility is a consequence of their polarity and negative charge at physiological pH.

[3] = tested on: agonist-induced [Ca2+]i elevation; experiment: Cytoplasmic calcium measurement by Fura-2 fluorescence in HT-29 cells; assay type: cell-based, human; conditions: pretreatment at high concentration prior to agonist
Protocol: [Ca^2+]i was measured in confluent monolayers of HT-29 cells after loading with Fura-2 (2 μM Fura-2-AM, 30 min, 37° C.). Labeled cells were mounted in a perfusion chamber on the stage of an inverted epifluorescence microscope. Cells were superfused with (in mM): 140 NaCl, 5 KCl, 1 MgCl2, 1 CaCl2, 10 D-glucose, and 10 HEPES (pH 7.4), initially without and then with ATP/carbachol. Test compounds were present in some experiments for 10 min prior to agonist addition. Fura-2 fluorescence was recorded at excitation wavelengths of 340 nm and 380 nm using standard procedures

CaMKII phosphorylation = CaMKII phosphorylation immunoblot in HT-29 cells; assay type: cell-based; conditions: 30 μM pretreatment, ATP/carbachol
Description: CaMKII Regulation of CaCC activation by CaMKII occurs in a cell type-dependent manner (Hartzell et al., Annu. Rev. Physiol. 67:719-58 (2005)). CaMKII has been reported to regulate calcium-activated chloride current in HT-29 and T84 cells (Worrell et al., Am. J. Physiol. 260:C877-82 (1991); Morris et al., Am. J. Physiol. 264:C977-85 (1993); Chan et al., J. Biol. Chem. 269:32464-8 (1994); Braun et al., J. Physiol. 488:37-55 (1995)). To determine whether the CaCC inhibitors interfered with ATP/carbachol-induced CaMKII activation, CaMKII phosphorylation in HT-29 cells was measured by immunoblot analysis. Calcium/calmodulin-dependent protein kinase II (CaMKII) was activated by 2 min treatment of HT-29 cells with ATP/carbachol (each 100 μM). Cells were then lysed with cell lysis buffer (20 mM Tris-HCl (pH 7.4), 1% Triton X-100, 150 mM NaCl, 2 mM EDTA, 50 mM α-glycerolphosphate, 1 mM Na3VO4, 1 mM DTT, and complete protease inhibitor mixture (Roche Applied Science)). Cell debris was removed by centrifugation, and proteins in the supernatant were resolved by SDS-PAGE and immunoblotted using standard procedures (transfer to PDVF membrane, 1 h blocking in 5% nonfat dry milk, primary/secondary antibody incubations, enhanced chemiluminescence detection). Rabbit polyclonal antibodies for anti-phospho-CaMKII (Thr286) and β-actin were purchased from Cell Signaling Technology (Danvers, Mass.).

[4] = tested on: calcium-activated chloride channel (CaCC); experiment: Whole-cell patch-clamp of calcium-dependent chloride current in HT-29 cells; assay type: cell-based, human; conditions: for calcium-dependent chloride current reduced: 1 μM ionomycin, HT-29; for ionomycin-induced chloride currents, symmetric NMDG-Cl solutions: whole-cell, pretreatment
Protocol: Whole cell recordings were accomplished with HT-29 cells at room temperature. The pipette solution contained (in mM): 30 CsCl, 100 Cs-aspartate, 1 MgCl2, 0.5 EGTA, 2 Tris-ATP, and 10 HEPES (pH 7.2 with CsOH), and the bath solution contained (in mM) 140 N-methyl-D-glucamine chloride (NMDG-Cl), 1 CaCl2, 1 MgCl2, 10 glucose, and 10 HEPES (pH 7.2). In one set of studies, symmetric NMDG-Cl solutions contained 140 mM NMDG-Cl, 1 mM MgCl2, 0.5 mM EGTA, 2 mM Tris-ATP, and 10 mM HEPES, pH 7.2. Pipettes were pulled from borosilicate glass and had resistances of 3-5 MΩ after fire polishing. Seal resistances were typically between 3-10 GΩ. After establishing the whole cell configuration, CaCCs were activated by 1 μM ionomycin. Whole cell currents were elicited by applying hyperpolarizing and depolarizing voltage pulses from a holding potential of 0 mV to potentials between −120 mV and +120 mV in steps of 20 mV. Currents were filtered at 5 kHz, and digitized and analyzed using an AxoScope 10.0 system and a Digidata 1440A […] (Molecular Devices, Sunnyvale, Calif.). Mean currents were expressed as current densities (picoampere per picofarad (pA/pF)).

CaCC in T84 cells = experiment: Short-circuit current (chloride secretion) in T84 cell monolayers; assay type: cell-based, human
Protocol: ATP/carbachol were used to induce calcium-dependent chloride secretion in well-differentiated T84 cell monolayers. T84 cells were seeded at a density of 10^5 cm^−2 on permeable supports (Snapwell, 1.12 cm^2 surface area) and grown until confluent. Supports containing confluent cell monolayers were mounted in Snapwell diffusion chambers. Cells were bathed for a 30 min stabilization period in HCO3^−-buffered solution containing (mmol/L): 120 NaCl, 5 KCl, 1 MgCl2, 1 CaCl2, 10 D-glucose, 5 HEPES, and 25 NaHCO3 (pH 7.4), aerated with 95% O2/5% CO2 at 37° C. Monolayers were voltage-clamped at 0 mV (EVC4000 Multi-Channel V/I Clamp, World Precision Instruments), and short-circuit current (Isc) was recorded continuously with agonists/inhibitors added at specified times.

human wildtype CFTR = molecular target: T1, human wildtype CFTR (Homo sapiens, UniProt P13569); experiment: Iodide influx in FRT cells expressing human wildtype CFTR; assay type: cell-based; conditions: 20 μM
T1 construct: expressed in transfected cells; host or cells: Fisher rat thyroid (FRT) cells
Protocol: Cystic Fibrosis Transmembrane Conductance Regulator (CFTR) Experiments were performed to determine whether the compounds affected CFTR because CFTR is a major intestinal chloride channel and evidence exists for cross-talk between cAMP and calcium signaling in intestinal cell chloride secretion (Schultheiss et al., Eur. J. Pharmacol. 546:161-70 (2006); Takahashi et al., J. Med. Microbiol. 49:801-10 (2000); Chao et al., EMBO J. 13:1065-72 (1994)). As described (Ma et al., J. Clin. Invest. 110:1651-8 (2002)), FRT cells expressing human wildtype CFTR and YFP-H148Q/I152L, at 100% confluence, were washed 3 times with PBS, leaving 60 μL. CFTR was activated by a cocktail containing forskolin (20 μM), genistein (50 μM), and isobutylmethylxanthine (100 μM). Iodide influx as described in Example 1 was measured at 10 min after addition of test compounds by determining YFP fluorescence for 2 s before and 20 s after addition of 165 μl of PBS-iodide.

T1 sequence (P13569 whole entry): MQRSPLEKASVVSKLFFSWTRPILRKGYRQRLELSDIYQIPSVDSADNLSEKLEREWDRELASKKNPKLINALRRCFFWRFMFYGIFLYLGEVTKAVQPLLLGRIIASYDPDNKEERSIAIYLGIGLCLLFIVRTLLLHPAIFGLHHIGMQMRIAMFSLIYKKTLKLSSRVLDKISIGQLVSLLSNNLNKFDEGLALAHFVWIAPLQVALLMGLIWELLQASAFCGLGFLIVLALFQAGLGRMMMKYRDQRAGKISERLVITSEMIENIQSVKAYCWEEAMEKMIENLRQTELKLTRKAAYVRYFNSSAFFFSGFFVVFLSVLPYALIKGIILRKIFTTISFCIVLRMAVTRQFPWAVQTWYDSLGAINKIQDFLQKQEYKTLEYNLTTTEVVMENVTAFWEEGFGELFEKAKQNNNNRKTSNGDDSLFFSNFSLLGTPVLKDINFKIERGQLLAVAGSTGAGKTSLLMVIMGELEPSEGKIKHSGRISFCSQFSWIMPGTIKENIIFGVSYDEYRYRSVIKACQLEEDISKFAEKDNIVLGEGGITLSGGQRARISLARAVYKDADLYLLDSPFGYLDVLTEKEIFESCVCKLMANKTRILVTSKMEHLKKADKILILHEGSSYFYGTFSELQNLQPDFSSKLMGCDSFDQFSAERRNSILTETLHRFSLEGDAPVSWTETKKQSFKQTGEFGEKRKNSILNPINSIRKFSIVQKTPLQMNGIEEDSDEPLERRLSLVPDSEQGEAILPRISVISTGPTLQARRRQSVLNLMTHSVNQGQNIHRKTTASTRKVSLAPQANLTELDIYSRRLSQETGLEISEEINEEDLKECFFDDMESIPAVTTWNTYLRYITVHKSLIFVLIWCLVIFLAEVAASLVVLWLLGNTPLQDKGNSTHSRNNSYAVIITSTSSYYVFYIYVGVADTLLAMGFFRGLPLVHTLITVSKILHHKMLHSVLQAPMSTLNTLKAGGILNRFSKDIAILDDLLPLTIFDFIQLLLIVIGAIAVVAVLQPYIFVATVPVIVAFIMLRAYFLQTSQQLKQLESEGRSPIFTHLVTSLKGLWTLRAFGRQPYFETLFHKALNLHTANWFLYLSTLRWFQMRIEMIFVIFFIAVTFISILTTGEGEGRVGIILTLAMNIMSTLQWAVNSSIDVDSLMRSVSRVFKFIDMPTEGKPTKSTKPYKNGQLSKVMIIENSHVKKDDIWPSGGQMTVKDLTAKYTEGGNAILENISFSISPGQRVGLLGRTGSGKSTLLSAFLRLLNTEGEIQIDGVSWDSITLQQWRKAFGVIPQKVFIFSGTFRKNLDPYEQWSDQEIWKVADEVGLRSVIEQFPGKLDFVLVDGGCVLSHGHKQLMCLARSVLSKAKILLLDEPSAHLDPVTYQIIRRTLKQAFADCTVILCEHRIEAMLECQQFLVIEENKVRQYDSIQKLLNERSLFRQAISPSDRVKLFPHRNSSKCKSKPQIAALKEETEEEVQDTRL

CC(C)(C)C1CCc2c(sc(NC(=O)c3ccco3)c2C(=O)O)C1 (centres unmarked) [CaCCinh-A01, 6-tert-butyl-2-(furan-2-carboxamido)-4,5,6,7-tetrahydrobenzo[b]thiophene-3-carboxylic acid]
% inhibition at 25 μM ([1]; class A aminothiophenes): 100% | solubility [2]: > 500 µM | ATP or carbachol-induced [Ca2+]i elevations [3]: did not significantly reduce | agonist-induced CaMKII phosphorylation (CaMKII phosphorylation): did not significantly affect | calcium-dependent chloride current reduced ([4]; 0.1 μM compound): 38±14% | calcium-dependent chloride current reduced ([4]; 1 μM compound): 66±10% | calcium-dependent chloride current reduced ([4]; 10 μM compound): 91±1% | ionomycin-induced chloride currents, symmetric NMDG-Cl solutions [4]: reduced ionomycin-induced currents | ATP-induced short-circuit current reduced (CaCC in T84 cells; 10 μM compound): 38±7% | ATP-induced short-circuit current reduced (CaCC in T84 cells; 30 μM compound): 78±3%

O=C(O)c1ccc(C=C2SC(=S)N(c3cccc(C(F)(F)F)c3)C2=O)cc1 [CFTRinh-172, 3-[(3-trifluoromethyl)phenyl]-5-[(4-carboxyphenyl)methylene]-2-thioxo-4-thiazolidinone, reference compound]
CFTR inhibition (iodide influx), positive control (human wildtype CFTR): inhibition

2-hydroxy-5-(4-p-tolylthiazol-2-ylamino)benzoic acid [CaCCinh-B01]
% inhibition at 25 μM ([1]; class B aminothiazoles): 100% | ATP or carbachol-induced [Ca2+]i elevations [3]: did not significantly reduce | agonist-induced CaMKII phosphorylation (CaMKII phosphorylation): did not significantly affect | calcium-dependent chloride current reduced ([4]; 0.1 μM compound): 11±7% | calcium-dependent chloride current reduced ([4]; 1 μM compound): 34±12% | calcium-dependent chloride current reduced ([4]; 10 μM compound): 77±4% | ionomycin-induced chloride currents, symmetric NMDG-Cl solutions [4]: reduced ionomycin-induced currents | ATP-induced short-circuit current reduced (CaCC in T84 cells; 10 μM compound): 29±11% | ATP-induced short-circuit current reduced (CaCC in T84 cells; 30 μM compound): 64±3%
